# Results published in PubChem BioAssay (NCI).
# Several values for one entry are separate records, joined by “and”; a condition that tells them apart may be missing. Equal entries are not always repeated.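 Growth conditions: 96-well plates. Treatment: test compound, 48 hours, 5 concentrations. Analysis: linear interpolation between bracketing concentrations; unreached endpoints set to highest concentration. GI50: concentration for 50% inhibition of growth. TGI: total growth inhibition.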
# What was measured:
# Assay in all cases: NCI anticancer screen, dose series, 48 h
# 786-0 renal = tested on: 786-0 renal
# A498 renal = tested on: A498 renal
# A549 NSCLC = tested on: A549 NSCLC
# ACHN renal = tested on: ACHN renal
# BT-549 breast = tested on: BT-549 breast
# CAKI-1 renal = tested on: CAKI-1 renal
# CCRF-CEM leukemia = tested on: CCRF-CEM leukemia
# COLO 205 colon = tested on: COLO 205 colon
# DU-145 prostate = tested on: DU-145 prostate
# EKVX NSCLC = tested on: EKVX NSCLC
# HCC-2998 colon = tested on: HCC-2998 colon
# HCT-116 colon = tested on: HCT-116 colon
# HCT-15 colon = tested on: HCT-15 colon
# HL-60(TB) leukemia = tested on: HL-60(TB) leukemia
# HOP-62 NSCLC = tested on: HOP-62 NSCLC
# HOP-92 NSCLC = tested on: HOP-92 NSCLC
# HS 578T breast = tested on: HS 578T breast
# HT29 colon = tested on: HT29 colon
# IGROV1 ovarian = tested on: IGROV1 ovarian
# K-562 leukemia = tested on: K-562 leukemia
# KM12 colon = tested on: KM12 colon
# LOX IMVI melanoma = tested on: LOX IMVI melanoma
# M14 melanoma = tested on: M14 melanoma
# MALME-3M melanoma = tested on: MALME-3M melanoma
# MCF7 breast = tested on: MCF7 breast
# MDA-MB-231 breast = tested on: MDA-MB-231 breast
# MDA-MB-435 = tested on: MDA-MB-435
# MOLT-4 leukemia = tested on: MOLT-4 leukemia
# NCI-H226 lung = tested on: NCI-H226 lung
# NCI-H23 lung = tested on: NCI-H23 lung
# NCI-H460 lung = tested on: NCI-H460 lung
# NCI-H522 lung = tested on: NCI-H522 lung
# NCI/ADR-RES ovarian = tested on: NCI/ADR-RES ovarian
# OVCAR-3 ovarian = tested on: OVCAR-3 ovarian
# OVCAR-4 ovarian = tested on: OVCAR-4 ovarian
# OVCAR-5 ovarian = tested on: OVCAR-5 ovarian
# OVCAR-8 ovarian = tested on: OVCAR-8 ovarian
# PC-3 prostate = tested on: PC-3 prostate
# RPMI-8226 leukemia = tested on: RPMI-8226 leukemia
# RXF 393 renal = tested on: RXF 393 renal
# SF-268 CNS = tested on: SF-268 CNS
# SF-295 CNS = tested on: SF-295 CNS
# SF-539 CNS = tested on: SF-539 CNS
# SK-MEL-2 melanoma = tested on: SK-MEL-2 melanoma
# SK-MEL-28 melanoma = tested on: SK-MEL-28 melanoma
# SK-MEL-5 melanoma = tested on: SK-MEL-5 melanoma
# SK-OV-3 ovarian = tested on: SK-OV-3 ovarian
# SN12C renal = tested on: SN12C renal
# SNB-19 CNS = tested on: SNB-19 CNS
# SNB-75 CNS = tested on: SNB-75 CNS
# SR leukemia = tested on: SR leukemia
# SW-620 colon = tested on: SW-620 colon
# T-47D breast = tested on: T-47D breast
# TK-10 renal = tested on: TK-10 renal
# U251 CNS = tested on: U251 CNS
# UACC-257 melanoma = tested on: UACC-257 melanoma
# UACC-62 melanoma = tested on: UACC-62 melanoma
# UO-31 renal = tested on: UO-31 renal
smiles,measurement,setting,value
CN1CCN(Cc2ccc(NC(=O)c3cncc(C#Cc4cnc5ccc(NC6CCOCC6)nn45)c3)cc2C(F)(F)F)CC1,GI50,786-0 renal,202 nM and 90 nM
same,TGI,786-0 renal,742 nM and 355 nM
same,GI50,A498 renal,161 nM and 214 nM
same,TGI,A498 renal,425 nM and 366 nM
same,GI50,A549 NSCLC,84.1 nM and 74.8 nM
same,TGI,A549 NSCLC,459 nM and 671 nM
same,GI50,ACHN renal,161 nM and 155 nM
same,TGI,ACHN renal,736 nM and 965 nM
same,GI50,BT-549 breast,120 nM and 275 nM
same,TGI,BT-549 breast,770 nM and 860 nM
same,GI50,CAKI-1 renal,98.7 nM and 39.5 nM
same,GI50,CCRF-CEM leukemia,20.5 nM
same,GI50,COLO 205 colon,24.6 nM and 33.6 nM
same,TGI,COLO 205 colon,90.7 nM and 127 nM
same,GI50,DU-145 prostate,125 nM and 60.9 nM
same,TGI,DU-145 prostate,2160 nM and 431 nM
same,GI50,EKVX NSCLC,98.8 nM and 102 nM
same,TGI,EKVX NSCLC,903 nM and 591 nM
same,GI50,HCC-2998 colon,226 nM and 189 nM
same,TGI,HCC-2998 colon,2460 nM and 519 nM
same,GI50,HCT-116 colon,71.6 nM and 18.3 nM
same,TGI,HCT-116 colon,265 nM and 455 nM
same,GI50,HCT-15 colon,324 nM and 205 nM
same,TGI,HCT-15 colon,5100 nM and 667 nM
same,GI50,HL-60(TB) leukemia,139 nM and 43.2 nM
same,TGI,HL-60(TB) leukemia,384 nM and 336 nM
same,GI50,HOP-62 NSCLC,59.9 nM and 43.3 nM
same,TGI,HOP-62 NSCLC,507 nM and 300 nM
same,GI50,HOP-92 NSCLC,36.7 nM and 15.6 nM
same,TGI,HOP-92 NSCLC,175 nM and 69.4 nM
same,GI50,HS 578T breast,54.2 nM and 31.7 nM
same,TGI,HS 578T breast,368 nM and 335 nM
same,GI50,HT29 colon,115 nM and 70.4 nM
same,TGI,HT29 colon,506 nM and 501 nM
same,GI50,IGROV1 ovarian,84.7 nM and 20.8 nM
same,TGI,IGROV1 ovarian,321 nM and 212 nM
same,GI50,K-562 leukemia,5 nM
same,TGI,K-562 leukemia,741 nM and 108 nM
same,GI50,KM12 colon,5 nM
same,TGI,KM12 colon,667 nM and 389 nM
same,GI50,LOX IMVI melanoma,55.5 nM and 24.8 nM
same,TGI,LOX IMVI melanoma,140 nM and 172 nM
same,GI50,M14 melanoma,66.4 nM and 49.4 nM
same,TGI,M14 melanoma,156 nM and 200 nM
same,GI50,MALME-3M melanoma,99.6 nM and 78 nM
same,TGI,MALME-3M melanoma,588 nM and 246 nM
same,GI50,MCF7 breast,41.5 nM
same,TGI,MCF7 breast,543 nM and 377 nM
same,GI50,MDA-MB-231 breast,48.2 nM and 19.6 nM
same,TGI,MDA-MB-231 breast,219 nM and 241 nM
same,GI50,MDA-MB-435,119 nM and 63 nM
same,TGI,MDA-MB-435,761 nM and 268 nM
same,GI50,MOLT-4 leukemia,42 nM
same,TGI,MOLT-4 leukemia,1140 nM and 612 nM
same,GI50,NCI-H226 lung,67.5 nM
same,TGI,NCI-H226 lung,5790 nM
same,GI50,NCI-H23 lung,114 nM
same,TGI,NCI-H23 lung,529 nM
same,GI50,NCI-H460 lung,62.7 nM and 33.9 nM
same,TGI,NCI-H460 lung,837 nM and 197 nM
same,GI50,NCI-H522 lung,42.3 nM and 20.2 nM
same,TGI,NCI-H522 lung,116 nM and 137 nM
same,GI50,NCI/ADR-RES ovarian,2640 nM and 1670 nM
same,TGI,NCI/ADR-RES ovarian,10900 nM and 4620 nM
same,GI50,OVCAR-3 ovarian,135 nM and 70.3 nM
same,TGI,OVCAR-3 ovarian,752 nM and 300 nM
same,GI50,OVCAR-4 ovarian,157 nM and 102 nM
same,TGI,OVCAR-4 ovarian,5950 nM and 733 nM
same,GI50,OVCAR-5 ovarian,125 nM and 149 nM
same,TGI,OVCAR-5 ovarian,752 nM and 773 nM
same,GI50,OVCAR-8 ovarian,107 nM and 65.2 nM
same,TGI,OVCAR-8 ovarian,645 nM and 495 nM
same,GI50,PC-3 prostate,108 nM and 114 nM
same,TGI,PC-3 prostate,5340 nM and 1160 nM
same,GI50,RPMI-8226 leukemia,136 nM and 123 nM
same,TGI,RPMI-8226 leukemia,434 nM and 456 nM
same,GI50,RXF 393 renal,58.9 nM and 39.5 nM
same,TGI,RXF 393 renal,174 nM and 180 nM
same,GI50,SF-268 CNS,74.3 nM and 42.9 nM
same,TGI,SF-268 CNS,930 nM and 293 nM
same,GI50,SF-295 CNS,63.2 nM and 208 nM
same,TGI,SF-295 CNS,3810 nM and 812 nM
same,GI50,SF-539 CNS,17.6 nM and 17.5 nM
same,TGI,SF-539 CNS,83.2 nM and 112 nM
same,GI50,SK-MEL-2 melanoma,95.1 nM and 111 nM
same,TGI,SK-MEL-2 melanoma,197 nM and 246 nM
same,GI50,SK-MEL-28 melanoma,179 nM and 155 nM
same,TGI,SK-MEL-28 melanoma,986 nM and 344 nM
same,GI50,SK-MEL-5 melanoma,296 nM and 158 nM
same,TGI,SK-MEL-5 melanoma,1030 nM and 312 nM
same,GI50,SK-OV-3 ovarian,116 nM
same,TGI,SK-OV-3 ovarian,439 nM
same,GI50,SN12C renal,24.1 nM and 21.5 nM
same,TGI,SN12C renal,804 nM and 549 nM
same,GI50,SNB-19 CNS,137 nM and 174 nM
same,TGI,SNB-19 CNS,4370 nM and 882 nM
same,GI50,SNB-75 CNS,67.8 nM
same,TGI,SNB-75 CNS,198 nM and 22.4 nM
same,GI50,SR leukemia,35.5 nM
same,TGI,SR leukemia,506 nM and 351 nM
same,GI50,SW-620 colon,76.6 nM and 21.3 nM
same,TGI,SW-620 colon,1640 nM and 167 nM
same,GI50,T-47D breast,165 nM and 167 nM
same,TGI,T-47D breast,1480 nM and 973 nM
same,GI50,TK-10 renal,156 nM
same,TGI,TK-10 renal,759 nM
same,GI50,U251 CNS,125 nM and 134 nM
same,TGI,U251 CNS,610 nM and 349 nM
same,GI50,UACC-257 melanoma,203 nM and 191 nM
same,TGI,UACC-257 melanoma,1420 nM and 614 nM
same,GI50,UACC-62 melanoma,120 nM and 145 nM
same,TGI,UACC-62 melanoma,685 nM and 323 nM
same,GI50,UO-31 renal,584 nM and 235 nM
same,TGI,UO-31 renal,3050 nM and 749 nM
